Assay results taken from patent US5455286A, “Bioactive composition” (priority 1994, dated 1995).

Key:
[1] = dog, in vivo, 480 min
Description: (§1) The experiments were carried out on male beagle dogs, each roughly 10 kg in weight. […] The dogs were restrained in a dog sling. Approximately 10 mg of propranolol was administered nasally to each dog by spraying an appropriate amount of the present formulations containing propranolol into both nostrils of the dog using a metered dose dispenser (typically 2 sprays over a two minute period). The amount of drug administered nasally was obtained by weighing the dispenser before and after spraying.
(§2) Blood samples were withdrawn at desired intervals from each dog through a cannula inserted in the cephalic vein. The blood samples were centrifuged immediately after the collection and the plasma samples were stored frozen until assayed. The assay for propranolol consisted of HPLC separation and UV/fluorescence detection.
(§3) The area under the curve (AUC) has been normalized to the amount of propranolol administered.

in vivo = conditions: dog
Description: as §1, §2, §3

What does the source list for CC(C)NCC(O)COc1cccc2ccccc12 (centres unmarked) [Propranolol, propranolol]?
AUC/IV-AUC [1]: 1.00; Tmax (in vivo; iv): 0.05 h; Cmax (in vivo; po): 3 ng/mL; Tmax (in vivo; po): 2 h; bioavailability at 8 h (in vivo; po): 4%
